Structures are written as SMILES.

Series [1] is described as follows: Cyto-toxicity (MTT assay). It counts as cell-based. (Tetrazolium assays rely on reduction of a dye to a coloured formazan, in cell work by metabolically active cells.)
Series [2] is described as follows: Single dose oral pharmacokinetic study. It counts as in vivo. Conditions: mouse, Mice oral PK @30 mg/kg, plasma, vehicle 10% Solutol+20% PEG; for AUC(0-t): read-out: AUC0-t; for Cmax: read-out: Cmax. On the procedure:
The test item was administered through oral route to animals (rat/mice) at 30 mg/kg dose in a suitable vehicle (10% Solutol+20% PEG) at 10 ml/kg dose volume. Blood samples (˜50 μL at each time point) were collected from retro-orbital plexus using K3 EDTA as anticoagulant in eppendorf tubes at defined time intervals 30 minutes, 1 hour, 2 hour, 4 hour, 8 hour, 24 hour & 48 hour under light ether anaesthesia. The samples were centrifuged at 3500×g to separate plasma and stored at −80° C. until analysis. Plasma 25 μl for Mice were processed as per described in sample preparation.
Standard solutions of the test compound 1 mg/mL solutions were prepared in DMSO and further dilutions were made in methanol. […] To the test compound plasma extraction was carried out using Acetonitrile precipitation. After reconstitution with solvent (50% Acetonitrile in Buffer) samples were analyzed by LCMSMS to get the concentrations to calculate PK Parameters.

On to `Cc1nc(C)c(C(=O)NC(C)(C)C(=O)N[C@@]23CC[C@]4(C)[C@H](CC[C@@H]5[C@@]6(C)CC[C@H](OC(=O)[C@H]7C[C@@H](C(=O)O)C7(C)C)C(C)(C)[C@@H]6CC[C@]54C)C2=C(C(C)C)C(=O)C3)s1` [Example 14, (1R,3S)-3-((((3aR,5aR,5bR,7aR,9S,11aR,11bR,13aS)-3a-(2-(2,4-dimethylthiazole-5-carboxamido)-2-methylpropanamido)-1-isopropyl-5a,5b,8,8,11a-pentamethyl-2-oxo-3,3a,4,5,5a,5b,6,7,7a,8,9,10,11,11a,11b,12,13,13a-octadecahydro-2H-cyclopenta[a]chrysen-9-yl)oxy)carbonyl)-2,2-dimethylcyclobutane-1-carboxylic acid], for which, in series [1], the viability at 4 days, 0.01 µM is 44%; the viability at 4 days, 0.1 µM was 8%; the viability at 4 days, 1 µM was determined as 2%. Besides, in series [2], the AUC(0-t) is 377 µg·h/mL and the Cmax worked out at 26800 ng/mL.
On to `Cc1ccc(C(=O)NC(C)(C)C(=O)N[C@@]23CC[C@]4(C)[C@H](CC[C@@H]5[C@@]6(C)CC[C@H](OC(=O)[C@H]7C[C@@H](C(=O)O)C7(C)C)C(C)(C)[C@@H]6CC[C@]54C)C2=C(C(C)C)C(=O)C3)cn1` [Example 61, (1R,3S)-3-((((3aR,5aR,5bR,7aR,9S,11aR,11bR,13aS)-1-isopropyl-5a,5b,8,8,11a-pentamethyl-3a-(2-methyl-2-(6-methylnicotinamido)propanamido)-2-oxo-3,3a,4,5,5a,5b,6,7,7a,8,9,10,11,11a,11b,12,13,13a-octadecahydro-2H-cyclopenta[a]chrysen-9-yl)oxy)carbonyl)-2,2-dimethylcyclobutane-1-carboxylic acid], for which, in series [1], the viability at 4 days, 0.01 µM was 88%; the viability at 4 days, 0.1 µM worked out at 42%; the viability at 4 days, 1 µM came to 2%. Besides, in series [2], the AUC(0-t) amounted to 615 µg·h/mL and the maximum concentration (Cmax) was 45700 ng/mL.
On to `CC(C)C1=C2[C@H]3CC[C@@H]4[C@@]5(C)CC[C@H](OC(=O)[C@H]6C[C@@H](C(=O)O)C6(C)C)C(C)(C)[C@@H]5CC[C@@]4(C)[C@]3(C)CC[C@@]2(NC(=O)C2(NC(=O)c3ccc(Cl)cc3)CC2)CC1=O` [Example 37, (1R,3S)-3-((((3aR,5aR,5bR,7aR,9S,11aR,11bR,13aS)-3a-(1-(4-chlorobenzamido)cyclopropane-1-carboxamido)-1-isopropyl-5a,5b,8,8,11a-pentamethyl-2-oxo-3,3a,4,5,5a,5b,6,7,7a,8,9,10,11,11a,11b,12,13,13a-octadecahydro-2H-cyclopenta[a]chrysen-9-yl)oxy)carbonyl)-2,2-dimethylcyclobutane-1-carboxylic acid], for which, in series [1], the viability at 4 days, 0.01 µM amounted to 26%; the viability at 4 days, 0.1 µM stood at 4%; the viability at 4 days, 1 µM was 1%. Moreover, in series [2], the AUC(0-t) was determined as 874 µg·h/mL and the Cmax came to 38800 ng/mL.
In series [1], `CC(C)C1=C2[C@H]3CC[C@@H]4[C@@]5(C)CC[C@H](OC(=O)[C@H]6C[C@@H](C(=O)O)C6(C)C)C(C)(C)[C@@H]5CC[C@@]4(C)[C@]3(C)CC[C@@]2(NC(=O)C2(NC(=O)c3ccc(Cl)cc3)CCC2)CC1=O` [Example 42, (1R,3S)-3-((((3aR,5aR,5bR,7aR,9S,11aR,11bR,13aS)-3a-(1-(4-chlorobenzamido)cyclobutane-1-carboxamido)-1-isopropyl-5a,5b,8,8,11a-pentamethyl-2-oxo-3,3a,4,5,5a,5b,6,7,7a,8,9,10,11,11a,11b,12,13,13a-octadecahydro-2H-cyclopenta[a]chrysen-9-yl)oxy)carbonyl)-2,2-dimethylcyclobutane-1-carboxylic acid] gave a viability at 4 days, 0.01 µM of 27%; a viability at 4 days, 0.1 µM of 5%; a viability at 4 days, 1 µM of 4%. Further, in series [2], the AUC(0-t) came out at 481 µg·h/mL and the Cmax was determined as 22900 ng/mL.
`Cc1ccc(C(=O)NC2(C(=O)N[C@@]34CC[C@]5(C)[C@H](CC[C@@H]6[C@@]7(C)CC[C@H](OC(=O)[C@H]8C[C@@H](C(=O)O)C8(C)C)C(C)(C)[C@@H]7CC[C@]65C)C3=C(C(C)C)C(=O)C4)CCC2)cn1` [Example 43, (1R,3S)-3-((((3aR,5aR,5bR,7aR,9S,11aR,11bR,13aS)-1-isopropyl-5a,5b,8,8,11a-pentamethyl-3a-(1-(6-methylnicotinamido)cyclobutane-1-carboxamido)-2-oxo-3,3a,4,5,5a,5b,6,7,7a,8,9,10,11,11a,11b,12,13,13a-octadecahydro-2H-cyclopenta[a]chrysen-9-yl)oxy)carbonyl)-2,2-dimethylcyclobutane-1-carboxylic acid]: in series [1], the viability at 4 days, 0.01 µM came to 76%; the viability at 4 days, 0.1 µM turned out to be 26%; the viability at 4 days, 1 µM worked out at 3%. Besides, in series [2], the AUC(0-t) was 320 µg·h/mL and the highest concentration (Cmax) worked out at 31300 ng/mL.
With `CC(C)C1=C2[C@H]3CC[C@@H]4[C@@]5(C)CC[C@H](OC(=O)[C@H]6C[C@@H](C(=O)O)C6(C)C)C(C)(C)[C@@H]5CC[C@@]4(C)[C@]3(C)CC[C@@]2(NC(=O)C2(NC(=O)c3ncccn3)CCC2)CC1=O` [Example 44, (1R,3S)-3-((((3aR,5aR,5bR,7aR,9S,11aR,11bR,13aS)-1-isopropyl-5a,5b,8,8,11a-pentamethyl-2-oxo-3a-(1-(pyrimidine-2-carboxamido)cyclobutane-1-carboxamido)-3,3a,4,5,5a,5b,6,7,7a,8,9,10,11,11a,11b,12,13,13a-octadecahydro-2H-cyclopenta[a]chrysen-9-yl)oxy)carbonyl)-2,2-dimethylcyclobutane-1-carboxylic acid], in series [1], the viability at 4 days, 0.001 µM came to 84%; the viability at 4 days, 0.003 µM is 80%; the viability at 4 days, 0.01 µM came to 58%. Besides, in series [2], the AUC(0-t) worked out at 154 µg·h/mL and the maximum concentration (Cmax) turned out to be 19800 ng/mL.
Consider `Cc1cn(-c2ccc(C(=O)NC(C)(C)C(=O)N[C@@]34CC[C@]5(C)[C@H](CC[C@@H]6[C@@]7(C)CC[C@H](OC(=O)[C@H]8C[C@@H](C(=O)O)C8(C)C)C(C)(C)[C@@H]7CC[C@]65C)C3=C(C(C)C)C(=O)C4)cc2)cn1` [Example 20, (1R,3S)-3-((((3aR,5aR,5bR,7aR,9S,11aR,11bR,13aS)-1-isopropyl-5a,5b,8,8,11a-pentamethyl-3a-(2-methyl-2-(4-(4-methyl-1H-imidazol-1-yl)benz amido)propanamido)-2-oxo-3,3a,4,5,5a,5b,6,7,7a,8,9,10,11,11a,11b,12,13,13a-octadeca hydro-2H-cyclopenta[a]chrysen-9-yl)oxy)carbonyl)-2,2-dimethylcyclobutane-1-carboxylic acid], for which, in series [1], the viability at 4 days, 0.001 µM was 91%; the viability at 4 days, 0.003 µM worked out at 85%; the viability at 4 days, 0.01 µM came out at 40%. In series [2], the AUC(0-t) is 236 µg·h/mL and the Cmax came to 19000 ng/mL.
As for `CC(C)C1=C2[C@H]3CC[C@@H]4[C@@]5(C)CC[C@H](OC(=O)[C@H]6C[C@@H](C(=O)O)C6(C)C)C(C)(C)[C@@H]5CC[C@@]4(C)[C@]3(C)CC[C@@]2(NC(=O)C(C)(C)NC(=O)c2ccc3[nH]cnc3c2)CC1=O` [Example 12, (1R,3S)-3-((((3aR,5aR,5bR,7aR,9S,11aR,11bR,13aS)-3a-(2-(1H-benzo[d]imidazole-5-carboxamido)-2-methylpropanamido)-1-isopropyl-5a,5b,8,8,11a-pentamethyl-2-oxo-3,3a,4,5,5a,5b,6,7,7a,8,9,10,11,11a,11b,12,13,13a-octadecahydro-2H-cyclopenta[a]chrysen-9-yl)oxy)carbonyl)-2,2-dimethylcyclobutane-1-carboxylic acid], in series [1], the viability at 4 days, 0.01 µM turned out to be 42%; the viability at 4 days, 0.1 µM stood at 7%; the viability at 4 days, 1 µM is 3%. For the same compound, in series [2], the AUC(0-t) worked out at 61.3 µg·h/mL and the highest concentration (Cmax) was 8540 ng/mL.
In series [1], `Cc1ccc(C(=O)NC(C)(C)C(=O)N[C@@]23CC[C@]4(C)[C@H](CC[C@@H]5[C@@]6(C)CC[C@H](OC(=O)[C@H]7C[C@@H](C(=O)O)C7(C)C)C(C)(C)[C@@H]6CC[C@]54C)C2=C(C(C)C)C(=O)C3)cc1` [Example 23, (1R,3S)-3-((((3aR,5aR,5bR,7aR,9S,11aR,11bR,13aS)-1-isopropyl-5a,5b,8,8,11a-pentamethyl-3a-(2-methyl-2-(4-methylbenzamido)propanamido)-2-oxo-3,3a,4,5,5a,5b,6,7,7a,8,9,10,11,11a,11b,12,13,13a-octadecahydro-2H-cyclopenta[a]chrysen-9-yl)oxy)carbonyl)-2,2-dimethylcyclobutane-1-carboxylic acid] had a viability at 4 days, 0.01 µM of 34%; a viability at 4 days, 0.1 µM of 8%; a viability at 4 days, 1 µM of 4%. Besides, in series [2], the AUC(0-t) was determined as 590 µg·h/mL and the Cmax was 29700 ng/mL.
As to `CC(C)C1=C2[C@H]3CC[C@@H]4[C@@]5(C)CC[C@H](OC(=O)[C@H]6C[C@@H](C(=O)O)C6(C)C)C(C)(C)[C@@H]5CC[C@@]4(C)[C@]3(C)CC[C@@]2(NC(=O)C(C)(C)NC(=O)c2cc(C(C)C)n[nH]2)CC1=O` [Example 17, (1R,3S)-3-((((3aR,5aR,5bR,7aR,9S,11aR,11bR,13aS)-1-isopropyl-3a-(2-(3-isopropyl-1H-pyrazole-5-carboxamido)-2-methylpropanamido)-5a,5b,8,8, 11a-pentamethyl-2-oxo-3,3a,4,5,5a,5b,6,7,7a,8,9,10,11,11a,11b,12,13,13a-octadecahydro-2H-cyclopenta[a]chrysen-9-yl)oxy)carbonyl)-2,2-dimethylcyclobutane-1-carboxylic acid], in series [1], the viability at 4 days, 0.001 µM worked out at 81%; the viability at 4 days, 0.003 µM amounted to 62%; the viability at 4 days, 0.01 µM stood at 26%. In addition, in series [2], the AUC(0-t) turned out to be 333 µg·h/mL and the Cmax amounted to 28600 ng/mL.

As a reminder, the viability is a per cent measure of how many cells are alive, often set against a control. A lower viability goes with more harm to the cells. As usually defined, the Cmax is the highest concentration seen after dosing.

(Values after patent US20170008921A1, “C-3 NOVEL TRITERPENONE WITH C-28 REVERSE AMIDE DERIVATIVES AS HIV INHIBITORS” (HETERO RESEARCH FOUNDATION, priority 2015, published 2017).)
